{
  "source": "paper PMC9575579",
  "about": "(European Journal of Medicinal Chemistry, 2022)",
  "key": {"Vero E6-GFP cells": {"tested_on": "Vero E6-GFP cells", "conditions": "African green monkey, 2 µM"}, "SARS-CoV-2 M^pro": {"target": "SARS-CoV-2 M^pro (Severe acute respiratory syndrome coronavirus 2, UniProt P0DTD1)", "assay": "biochemical", "type": "biochemical", "conditions": "for IC50: M^pro SARS-COV-2 IC50"}, "SARS-CoV-2": {"tested_on": "SARS-CoV-2", "assay": "microbe, parasite or virus in culture", "conditions": "for EC50: Severe acute respiratory syndrome coronavirus 2, Vero, 72 h"}, "MERS-CoV M^pro": {"target": "MERS-CoV M^pro (Middle East respiratory syndrome-related coronavirus, UniProt K9N7C7)", "sequence (K9N7C7 3248-3553 limits assumed)": "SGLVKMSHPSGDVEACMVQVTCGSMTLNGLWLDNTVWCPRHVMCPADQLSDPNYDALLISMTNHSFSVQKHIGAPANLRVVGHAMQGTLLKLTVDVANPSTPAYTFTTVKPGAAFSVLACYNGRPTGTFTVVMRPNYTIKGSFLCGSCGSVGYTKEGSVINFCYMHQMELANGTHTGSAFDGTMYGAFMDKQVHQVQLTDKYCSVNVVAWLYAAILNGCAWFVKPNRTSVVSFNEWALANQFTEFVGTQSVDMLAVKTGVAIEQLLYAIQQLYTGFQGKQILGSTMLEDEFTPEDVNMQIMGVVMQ", "assay": "biochemical", "conditions": "for inhibition at 30 µM: read-out: % of inhibition of the M^pro at 30 μM (MERS)"}},
  "note": "Marks after values point to notes of the source that are not given here.",
  "data": [
    {"smiles": "O=C(NCc1ccccc1)C(=O)[C@H](C[C@@H]1CCNC1=O)NC(=O)[C@@H]1CCCN1C(=O)COc1ccc(Cl)cc1Cl", "note": "[9d, (S)–N-((S)-4-(benzylamino)-3,4-dioxo-1-((S)-2-oxopyrrolidin-3-yl)butan-2-yl)-1-(2-(2,4-dichlorophenoxy)acetyl)pyrrolidine-2-carboxamide]", "values": [
      {"measurement": "Residual cell viability at the highest concentration tested", "setting": "Vero E6-GFP cells", "value": ">100 (100%) ^e"}
    ]},
    {"smiles": "O=C(NCCc1ccccc1F)C(=O)[C@H](C[C@@H]1CCNC1=O)NC(=O)[C@@H]1CCCN1C(=O)OCc1ccccc1", "note": "[9b, (S)-benzyl2-((S)-4-(2-fluorophenethylamino)-3,4-dioxo-1-((S)-2-oxopyrrolidin-3-yl)butan-2-ylcarbamoyl)pyrrolidine-1-carboxylate]", "values": [
      {"measurement": "M^pro SARS-COV-2 IC50", "setting": "SARS-CoV-2 M^pro", "value": "submicromolar range"}
    ]},
    {"smiles": "COc1ccccc1CCNC(=O)C(=O)[C@H](C[C@@H]1CCNC1=O)NC(=O)[C@@H]1CCCN1C(=O)OCc1ccccc1", "note": "[9c, (S)-benzyl2-((S)-4-(2-methoxyphenethylamino)-3,4-dioxo-1-((S)-2-oxopyrrolidin-3-yl)butan-2-ylcarbamoyl)pyrrolidine-1-carboxylate]", "values": [
      {"measurement": "M^pro SARS-COV-2 IC50", "setting": "SARS-CoV-2 M^pro", "value": "submicromolar range"}
    ]},
    {"smiles": "O=C(NCc1ccccc1C(F)(F)F)C(=O)[C@H](C[C@@H]1CCNC1=O)NC(=O)[C@@H]1CCCN1C(=O)COc1ccc(Cl)cc1Cl", "note": "[9h, (S)-1-(2-(2,4-dichlorophenoxy)acetyl)-N-((S)-3,4-dioxo-1-((S)-2-oxopyrrolidin-3-yl)-4-(2-(trifluoromethyl)benzylamino)butan-2-yl)pyrrolidine-2-carboxamide]", "values": [
      {"measurement": "EC50", "setting": "SARS-CoV-2", "value": "> 100", "unit": "µM"},
      {"measurement": "IC50", "setting": "MERS-CoV M^pro", "value": "> 30", "unit": "µM"},
      {"measurement": "inhibition at 30 µM", "setting": "MERS-CoV M^pro", "value": 73, "unit": "%"},
      {"measurement": "IC50", "setting": "SARS-CoV-2 M^pro", "value": "> 30000", "unit": "nM"},
      {"measurement": "inhibition at 30 µM", "setting": "SARS-CoV-2 M^pro; read-out: % of inhibition of the M^pro at 30 μM (SARS-CoV-2)", "value": 57, "unit": "%"}
    ]},
    {"smiles": "O=C(NCCc1ccccc1)C(=O)[C@H](C[C@@H]1CCNC1=O)NC(=O)[C@@H]1CCCN1C(=O)OCc1ccccc1", "note": "[9a, (S)-benzyl2-((S)-3,4-dioxo-1-((S)-2-oxopyrrolidin-3-yl)-4-(phenethylamino)butan-2ylcarbamoyl)pyrrolidine-1-carboxylate]", "values": [
      {"measurement": "EC50 + CP100356 (2 μM)", "setting": "SARS-CoV-2", "value": "did not change"},
      {"measurement": "Residual cell viability at the highest concentration tested", "setting": "Vero E6-GFP cells", "value": ">100 (100%) ^e"}
    ]},
    {"smiles": "COc1ccc(CNC(=O)C(=O)[C@H](C[C@@H]2CCNC2=O)NC(=O)[C@@H]2CCCN2C(=O)COc2ccc(Cl)cc2Cl)c(OC)c1", "note": "[9f, (S)-1-(2-(2,4-dichlorophenoxy)acetyl)-N-((S)-4-(2,4-dimethoxybenzylamino)-3,4-dioxo-1-((S)-2-oxopyrrolidin-3-yl)butan-2-yl)pyrrolidine-2-carboxamide]", "values": [
      {"measurement": "EC50", "setting": "SARS-CoV-2", "value": "> 100", "unit": "µM"},
      {"measurement": "IC50", "setting": "MERS-CoV M^pro", "value": "> 30", "unit": "µM"},
      {"measurement": "inhibition at 30 µM", "setting": "MERS-CoV M^pro", "value": 59, "unit": "%"},
      {"measurement": "IC50", "setting": "SARS-CoV-2 M^pro", "value": "1930 ± 160", "unit": "nM"}
    ]},
    {"smiles": "O=C(NCCc1ccccc1)C(=O)[C@H](C[C@@H]1CCNC1=O)NC(=O)[C@@H]1CCCN1C(=O)COc1ccc(Cl)cc1Cl", "note": "[9e, (S)-1-(2-(2,4-dichlorophenoxy)acetyl)-N-((S)-3,4-dioxo-1-((S)-2-oxopyrrolidin-3-yl)-4-(phenethylamino)butan-2-yl)pyrrolidine-2-carboxamide]", "values": [
      {"measurement": "Residual cell viability at the highest concentration tested", "setting": "Vero E6-GFP cells", "value": ">100 (100%) ^e"}
    ]}
  ]
}
